Active and inactive are the calls of the source. The rule behind the calls is not given here.
Biological target: T1, 5-hydroxytryptamine receptor 2C (Homo sapiens, UniProt P28335)
T1 sequence (P28335 whole entry): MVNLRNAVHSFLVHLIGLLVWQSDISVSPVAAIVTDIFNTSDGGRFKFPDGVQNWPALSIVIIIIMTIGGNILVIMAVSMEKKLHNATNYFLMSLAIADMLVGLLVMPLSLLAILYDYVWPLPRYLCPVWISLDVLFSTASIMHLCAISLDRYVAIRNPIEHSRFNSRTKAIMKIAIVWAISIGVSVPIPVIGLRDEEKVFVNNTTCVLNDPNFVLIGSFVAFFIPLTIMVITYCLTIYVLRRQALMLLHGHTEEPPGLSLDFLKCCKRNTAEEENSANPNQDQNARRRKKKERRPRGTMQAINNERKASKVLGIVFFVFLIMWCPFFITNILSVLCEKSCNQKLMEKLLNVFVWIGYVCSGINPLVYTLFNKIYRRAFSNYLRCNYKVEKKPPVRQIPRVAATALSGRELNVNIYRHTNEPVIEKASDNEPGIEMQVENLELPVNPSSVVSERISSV
Assay: Displacement of [3H]mesulergine from 5HT2C receptor expressed in HEK293 cells
Type: cell-based
Conditions: not given

| Compound | Ki |
| --- | --- |
| COc1ccc(N2Cc3ccc(Cl)c(Cl)c3C2=O)cc1OCCN1CCC(C)CC1 | 1 nM |
| COc1ccc(N2Cc3cccc(OC)c3C2=O)cc1OCCN1CCCCC1 | 200 nM |
| COc1ccc(N2Cc3cc(Cl)ccc3C2=O)cc1OCCN1CCC(C)CC1 | 25.1 nM |
| COc1ccc(N2Cc3cccc(C#N)c3C2=O)cc1OCCN1CCC(C)CC1 | 10 nM |
| COc1ccc(N2Cc3cc(Cl)cc(Cl)c3C2=O)cc1OCCN1CCOCC1 | 12.6 nM |

More lines, in order of falling Ki, values ahead:

| Ki | Compound |
| --- | --- |
| 6.31 nM | COc1ccc(N2Cc3c(F)ccc(C(F)(F)F)c3C2=O)cc1OCCN1CCC(C)CC1 |
| 3.16 nM | COc1ccc(N2Cc3cc(C)cc(C)c3C2=O)cc1OCCN1CCC(C)CC1 |
| 1.26 nM | COc1ccc(N2C(=O)c3c(Cl)cccc3C2C)cc1OCCN1CCC(C)CC1 (stereo unspecified) |

Biological target: T2, 5-hydroxytryptamine receptor 2A (Homo sapiens, UniProt P28223)
Assay: Displacement of [3H]ketanserin from 5HT2A receptor expressed in HEK293 cells
Type: cell-based
Conditions: not given

T2 sequence (P28223 whole entry): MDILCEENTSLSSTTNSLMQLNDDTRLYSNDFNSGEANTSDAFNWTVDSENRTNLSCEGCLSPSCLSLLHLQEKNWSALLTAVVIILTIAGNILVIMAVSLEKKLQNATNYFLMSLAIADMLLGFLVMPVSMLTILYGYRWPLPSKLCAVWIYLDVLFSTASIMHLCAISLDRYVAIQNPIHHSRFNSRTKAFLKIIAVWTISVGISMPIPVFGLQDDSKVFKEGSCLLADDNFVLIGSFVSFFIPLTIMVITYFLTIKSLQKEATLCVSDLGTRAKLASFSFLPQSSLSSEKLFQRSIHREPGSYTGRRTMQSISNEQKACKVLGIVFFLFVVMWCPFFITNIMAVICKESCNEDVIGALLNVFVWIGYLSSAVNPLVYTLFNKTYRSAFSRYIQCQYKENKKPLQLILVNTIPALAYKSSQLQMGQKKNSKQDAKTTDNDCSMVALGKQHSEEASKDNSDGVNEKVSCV

| Compound | Ki |
| --- | --- |
| COc1ccc(N2Cc3ccc(Cl)c(Cl)c3C2=O)cc1OCCN1CCC(C)CC1 | 501 nM |
| COc1ccc(N2Cc3cccc(OC)c3C2=O)cc1OCCN1CCCCC1 | > 6310 nM |
| COc1ccc(N2Cc3cc(Cl)ccc3C2=O)cc1OCCN1CCC(C)CC1 | > 1000 nM |
| COc1ccc(N2Cc3cccc(C#N)c3C2=O)cc1OCCN1CCC(C)CC1 | > 3160 nM |
| COc1ccc(N2Cc3cc(Cl)cc(Cl)c3C2=O)cc1OCCN1CCOCC1 | > 7940 nM |

The next lines start with the values.

| Ki | Compound |
| --- | --- |
| > 1000 nM | COc1ccc(N2Cc3c(F)ccc(C(F)(F)F)c3C2=O)cc1OCCN1CCC(C)CC1 |
| 1260 nM | COc1ccc(N2Cc3cc(C)cc(C)c3C2=O)cc1OCCN1CCC(C)CC1 |
| > 1260 nM | COc1ccc(N2C(=O)c3c(Cl)cccc3C2C)cc1OCCN1CCC(C)CC1 (stereo unspecified) |

Biological target: T3, 5-hydroxytryptamine receptor 2B (Homo sapiens, UniProt P41595)
Assay: Displacement of [3H]5-HT from 5HT2B receptor expressed in HEK293 cells
Type: cell-based
Conditions: not given

T3 sequence (P41595 whole entry): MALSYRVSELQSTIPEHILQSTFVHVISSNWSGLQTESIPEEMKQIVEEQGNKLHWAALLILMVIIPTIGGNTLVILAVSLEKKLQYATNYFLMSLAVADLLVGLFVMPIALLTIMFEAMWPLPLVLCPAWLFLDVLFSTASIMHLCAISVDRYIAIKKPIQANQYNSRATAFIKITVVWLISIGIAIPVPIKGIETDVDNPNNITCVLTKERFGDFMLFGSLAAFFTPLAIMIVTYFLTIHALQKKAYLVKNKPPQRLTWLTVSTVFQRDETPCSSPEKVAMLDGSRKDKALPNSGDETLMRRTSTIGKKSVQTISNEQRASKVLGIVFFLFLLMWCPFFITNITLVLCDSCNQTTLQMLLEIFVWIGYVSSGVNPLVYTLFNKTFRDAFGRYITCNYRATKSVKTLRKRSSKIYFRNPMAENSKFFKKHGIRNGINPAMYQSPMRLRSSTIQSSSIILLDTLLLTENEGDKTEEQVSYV

| Compound | Ki |
| --- | --- |
| COc1ccc(N2Cc3ccc(Cl)c(Cl)c3C2=O)cc1OCCN1CCC(C)CC1 | 100 nM |
| COc1ccc(N2Cc3cccc(OC)c3C2=O)cc1OCCN1CCCCC1 | > 7940 nM |
| COc1ccc(N2Cc3cc(Cl)ccc3C2=O)cc1OCCN1CCC(C)CC1 | > 1000 nM |
| COc1ccc(N2Cc3cccc(C#N)c3C2=O)cc1OCCN1CCC(C)CC1 | > 794 nM |
| COc1ccc(N2Cc3cc(Cl)cc(Cl)c3C2=O)cc1OCCN1CCOCC1 | > 1000 nM |

Now from value to compound:

| Ki | Compound |
| --- | --- |
| > 1000 nM | COc1ccc(N2Cc3c(F)ccc(C(F)(F)F)c3C2=O)cc1OCCN1CCC(C)CC1 |
| 316 nM | COc1ccc(N2Cc3cc(C)cc(C)c3C2=O)cc1OCCN1CCC(C)CC1 |
| 200 nM | COc1ccc(N2C(=O)c3c(Cl)cccc3C2C)cc1OCCN1CCC(C)CC1 (stereo unspecified) |

Tested on: not listed separately
Assay: Blood clearance in iv dosed rat
Type: ADME, organism-based
Conditions: whole blood

| clearance | Compound |
| --- | --- |
| 48 mL/min/kg | COc1ccc(N2Cc3c(F)ccc(C(F)(F)F)c3C2=O)cc1OCCN1CCC(C)CC1 |
| 59 mL/min/kg | COc1ccc(N2Cc3cc(C)cc(C)c3C2=O)cc1OCCN1CCC(C)CC1 |
| 53 mL/min/kg | COc1ccc(N2C(=O)c3c(Cl)cccc3C2C)cc1OCCN1CCC(C)CC1 (stereo unspecified) |

Tested on: not listed separately
Assay: Volume of distribution in iv dosed rat
Type: ADME, organism-based
Conditions: in vivo, read-out: Vdss

| Vd | Compound |
| --- | --- |
| 1.9 L/kg | COc1ccc(N2Cc3c(F)ccc(C(F)(F)F)c3C2=O)cc1OCCN1CCC(C)CC1 |
| 7.8 L/kg | COc1ccc(N2Cc3cc(C)cc(C)c3C2=O)cc1OCCN1CCC(C)CC1 |
| 8.2 L/kg | COc1ccc(N2C(=O)c3c(Cl)cccc3C2C)cc1OCCN1CCC(C)CC1 (stereo unspecified) |

Tested on: not listed separately
Assay: Oral bioavailability in po dosed rat
Type: ADME, organism-based
Conditions: in vivo

| bioavailability | Compound |
| --- | --- |
| 4% | COc1ccc(N2Cc3c(F)ccc(C(F)(F)F)c3C2=O)cc1OCCN1CCC(C)CC1 |
| 10% | COc1ccc(N2Cc3cc(C)cc(C)c3C2=O)cc1OCCN1CCC(C)CC1 |

Biological target: T4, 5-hydroxytryptamine receptor 2C (Homo sapiens) (UniProt P28335)
T4 sequence (whole entry): T1 sequence (P28335 whole entry)
Assay: Agonist activity at 5HT2C receptor expressed in HEK293 cells assessed as intracellular calcium mobilisation up to 10 uM
Type: functional, cell-based
Conditions: not given

| Compound | Activity |
| --- | --- |
| COc1ccc(N2Cc3ccc(Cl)c(Cl)c3C2=O)cc1OCCN1CCC(C)CC1 | inactive |
| COc1ccc(N2Cc3cccc(OC)c3C2=O)cc1OCCN1CCCCC1 | inactive |
| COc1ccc(N2Cc3cc(Cl)ccc3C2=O)cc1OCCN1CCC(C)CC1 | inactive |
| COc1ccc(N2Cc3cccc(C#N)c3C2=O)cc1OCCN1CCC(C)CC1 | inactive |
| COc1ccc(N2Cc3cc(Cl)cc(Cl)c3C2=O)cc1OCCN1CCOCC1 | inactive |

Continued, values first:

| Activity | Compound |
| --- | --- |
| inactive | COc1ccc(N2Cc3c(F)ccc(C(F)(F)F)c3C2=O)cc1OCCN1CCC(C)CC1 |
| inactive | COc1ccc(N2Cc3cc(C)cc(C)c3C2=O)cc1OCCN1CCC(C)CC1 |
| inactive | COc1ccc(N2C(=O)c3c(Cl)cccc3C2C)cc1OCCN1CCC(C)CC1 (stereo unspecified) |

Biological target: T2, 5-hydroxytryptamine receptor 2A
Assay: Agonist activity at 5HT2A receptor expressed in HEK293 cells assessed as intracellular calcium mobilisation up to 10 uM
Type: functional, cell-based
Conditions: not given

| Compound | Activity |
| --- | --- |
| COc1ccc(N2Cc3ccc(Cl)c(Cl)c3C2=O)cc1OCCN1CCC(C)CC1 | inactive |
| COc1ccc(N2Cc3cccc(OC)c3C2=O)cc1OCCN1CCCCC1 | inactive |
| COc1ccc(N2Cc3cc(Cl)ccc3C2=O)cc1OCCN1CCC(C)CC1 | inactive |
| COc1ccc(N2Cc3cccc(C#N)c3C2=O)cc1OCCN1CCC(C)CC1 | inactive |
| COc1ccc(N2Cc3cc(Cl)cc(Cl)c3C2=O)cc1OCCN1CCOCC1 | inactive |

Next, values leading:

| Activity | Compound |
| --- | --- |
| inactive | COc1ccc(N2Cc3c(F)ccc(C(F)(F)F)c3C2=O)cc1OCCN1CCC(C)CC1 |
| inactive | COc1ccc(N2Cc3cc(C)cc(C)c3C2=O)cc1OCCN1CCC(C)CC1 |
| inactive | COc1ccc(N2C(=O)c3c(Cl)cccc3C2C)cc1OCCN1CCC(C)CC1 (stereo unspecified) |

Biological target: T3, 5-hydroxytryptamine receptor 2B
Assay: Agonist activity at 5HT2B receptor expressed in HEK293 cells assessed as intracellular calcium mobilisation up to 10 uM
Type: functional, cell-based
Conditions: not given

| Compound | Activity |
| --- | --- |
| COc1ccc(N2Cc3ccc(Cl)c(Cl)c3C2=O)cc1OCCN1CCC(C)CC1 | inactive |
| COc1ccc(N2Cc3cccc(OC)c3C2=O)cc1OCCN1CCCCC1 | inactive |
| COc1ccc(N2Cc3cc(Cl)ccc3C2=O)cc1OCCN1CCC(C)CC1 | inactive |
| COc1ccc(N2Cc3cccc(C#N)c3C2=O)cc1OCCN1CCC(C)CC1 | inactive |
| COc1ccc(N2Cc3cc(Cl)cc(Cl)c3C2=O)cc1OCCN1CCOCC1 | inactive |

Other lines, results leading:

| Activity | Compound |
| --- | --- |
| inactive | COc1ccc(N2Cc3c(F)ccc(C(F)(F)F)c3C2=O)cc1OCCN1CCC(C)CC1 |
| inactive | COc1ccc(N2Cc3cc(C)cc(C)c3C2=O)cc1OCCN1CCC(C)CC1 |
| inactive | COc1ccc(N2C(=O)c3c(Cl)cccc3C2C)cc1OCCN1CCC(C)CC1 (stereo unspecified) |
